Source: ChEMBL document CHEMBL1629577, “Activity of T-705 in a hamster model of yellow fever virus infection in comparison with that of a chemically related compound, T-1106” (Antimicrob Agents Chemother, 2009)
Calls of active or inactive are those of the source. No cut-off for these calls is given here.

How the values were obtained:
[1] = tested on: Yellow fever virus; experiment: Antiviral activity against 10^2 CCID50 Yellow fever virus Jimenez infected in syrian golden hamster assessed as serum AST level in non surviving animals at 400 mg/kg/day, po administered 5 days post viral infection; format: functional
[2] = tested on: Yellow fever virus; experiment: Antiviral activity against 10^2 CCID50 Yellow fever virus Jimenez infected in syrian golden hamster assessed as mean day of death […] at 400 mg/kg/day, po administered twice daily for 8 days started 1 day post infection; format: functional
[3] = tested on: Yellow fever virus; experiment: Antiviral activity against 10^2 CCID50 Yellow fever virus Jimenez infected in syrian golden hamster assessed as mean day of death […] at 400 mg/kg/day, po administered twice daily for 8 days started 2 day post infection; format: functional
[4] = tested on: Yellow fever virus; experiment: Antiviral activity against 10^2 CCID50 Yellow fever virus Jimenez infected in syrian golden hamster assessed as mean day of death […] at 400 mg/kg/day, po administered twice daily for 8 days started 5 day post infection; format: functional
[5] = tested on: Yellow fever virus; experiment: Antiviral activity against 10^2 CCID50 Yellow fever virus Jimenez infected in syrian golden hamster assessed as survival of animal at 400 mg/kg/day, po administered twice daily for 8 days started 1 day post viral infection; format: functional, organism-based
[6] = tested on: Yellow fever virus; experiment: Antiviral activity against 10^2 CCID50 Yellow fever virus Jimenez infected in syrian golden hamster assessed as survival of animal at 400 mg/kg/day, po administered twice daily for 8 days started 2 day post viral infection; format: functional, organism-based
[7] = tested on: Yellow fever virus; experiment: Antiviral activity against Yellow fever virus 17D infected in African green monkey Vero cells assessed as inhibition of virus induced cytopathic effect by microscopic analysis; format: functional, cell-based
[8] = tested on: Yellow fever virus; experiment: Antiviral activity against 10^2 CCID50 Yellow fever virus Jimenez infected in syrian golden hamster assessed as serum ALT level at 400 mg/kg/day, po administered twice daily for 8 days started 4 hrs prior to viral infection; format: functional
[9] = tested on: Yellow fever virus; experiment: Antiviral activity against 10^2 CCID50 Yellow fever virus Jimenez infected in syrian golden hamster assessed as serum ALT level at 100 mg/kg/day, po administered twice daily for 8 days started 4 hrs prior to viral infection; format: functional
[10] = tested on: Yellow fever virus; experiment: Antiviral activity against 10^2 CCID50 Yellow fever virus Jimenez infected in syrian golden hamster assessed as reduction in viral titer in liver at 200 mg/kg/day administered twice daily for 8 days started 6 days post infection by quantitative RT-PCR analysis; format: functional, organism-based
[11] = tested on: Yellow fever virus; experiment: Antiviral activity against 10^2 CCID50 Yellow fever virus Jimenez infected in syrian golden hamster assessed as serum ALT level at 200 mg/kg/day, po administered twice daily for 8 days started 4 hrs prior to viral infection; format: functional
[12] = tested on: Yellow fever virus; experiment: Antiviral activity against 10^2 CCID50 Yellow fever virus Jimenez infected in syrian golden hamster assessed as serum AST level at 400 mg/kg/day, po administered twice daily for 8 days started 4 hrs prior to viral infection; format: functional, organism-based
[13] = tested on: Yellow fever virus; experiment: Antiviral activity 10^2 CCID50 Yellow fever virus Jimenez infected in syrian golden hamster assessed as serum AST level at 100 mg/kg/day, po administered twice daily for 8 days started 4 hrs prior to viral infection; format: functional, organism-based
[14] = tested on: Yellow fever virus; experiment: Antiviral activity against 10^2 CCID50 Yellow fever virus Jimenez infected in syrian golden hamster assessed as serum AST level at 50 mg/kg/day, po administered twice daily for 8 days started 4 hrs prior to viral infection; format: functional, organism-based
[15] = tested on: Yellow fever virus; experiment: Antiviral activity against 10^2 CCID50 Yellow fever virus Jimenez infected in syrian golden hamster assessed as serum AST level at 32 mg/kg/day, po administered twice daily for 8 days started 4 hrs prior to viral infection; format: functional, organism-based
[16] = tested on: Yellow fever virus; experiment: Antiviral activity against 10^2 CCID50 Yellow fever virus Jimenez infected in syrian golden hamster assessed as serum AST level at 10 mg/kg/day, po administered twice daily for 8 days started 4 hrs prior to viral infection; format: functional, organism-based
[17] = tested on: Yellow fever virus; experiment: Antiviral activity against 10^2 CCID50 Yellow fever virus Jimenez infected in syrian golden hamster assessed as mean day of death […] at 400 mg/kg/day, po administered twice daily for 8 days started 4 hrs prior to viral infection relative to control; format: functional
[18] = tested on: Yellow fever virus; experiment: Antiviral activity against 10^2 CCID50 Yellow fever virus Jimenez infected in syrian golden hamster assessed as mean day of death […] at 200 mg/kg/day, po administered twice daily for 8 days started 4 hrs prior to viral infection relative to control; format: functional
[19] = tested on: Yellow fever virus; experiment: Antiviral activity against 10^2 CCID50 Yellow fever virus Jimenez infected in syrian golden hamster assessed as mean day of death […] at 100 mg/kg/day, po administered twice daily for 8 days started 4 hrs prior to viral infection relative to control; format: functional
[20] = tested on: Yellow fever virus; experiment: Antiviral activity against 10^2 CCID50 Yellow fever virus Jimenez infected in syrian golden hamster assessed as survival of animal at 400 mg/kg/day, po administered twice daily for 8 days started 4 hrs prior to viral infection; format: functional, organism-based
[21] = tested on: Yellow fever virus; experiment: Antiviral activity against 10^2 CCID50 Yellow fever virus Jimenez infected in syrian golden hamster assessed as serum ALT level at 400 mg/kg/day, po administered daily for days started 1 day post viral challenge; format: functional
[22] = tested on: Yellow fever virus; experiment: Antiviral activity against 10^2 CCID50 Yellow fever virus Jimenez infected in syrian golden hamster assessed as serum AST level at 400 mg/kg/day, po administered daily for days started 1 day post viral challenge; format: functional
[23] = tested on: Yellow fever virus; experiment: Antiviral activity against 10^2 CCID50 Yellow fever virus Jimenez infected in syrian golden hamster assessed as serum ALT level at 400 mg/kg/day, po administered daily for days started 2 day post viral challenge; format: functional
[24] = tested on: Yellow fever virus; experiment: Antiviral activity against 10^2 CCID50 Yellow fever virus Jimenez infected in syrian golden hamster assessed as serum AST level at 400 mg/kg/day, po administered daily for days started 2 day post viral challenge; format: functional
[25] = tested on: Yellow fever virus; experiment: Antiviral activity against 10^2 CCID50 Yellow fever virus Jimenez infected in syrian golden hamster assessed as serum ALT level at 400 mg/kg/day, po administered daily for days started 3 day post viral challenge; format: functional
[26] = tested on: Yellow fever virus; experiment: Antiviral activity against 10^2 CCID50 Yellow fever virus Jimenez infected in syrian golden hamster assessed as serum AST level at 400 mg/kg/day, po administered daily for days started 3 day post viral challenge; format: functional
[27] = tested on: Yellow fever virus; experiment: Antiviral activity against 10^2 CCID50 Yellow fever virus Jimenez infected in syrian golden hamster assessed as serum ALT level at 400 mg/kg/day, po administered daily for days started 4 day post viral challenge; format: functional
[28] = tested on: Yellow fever virus; experiment: Antiviral activity against 10^2 CCID50 Yellow fever virus Jimenez infected in syrian golden hamster assessed as serum AST level at 400 mg/kg/day, po administered daily for days started 4 day post viral challenge; format: functional
[29] = tested on: Yellow fever virus; experiment: Antiviral activity against 10^2 CCID50 Yellow fever virus Jimenez infected in syrian golden hamster assessed as serum AST level at 400 mg/kg/day, po administered daily for days started 5 day post viral challenge; format: functional
[30] = tested on: Yellow fever virus; experiment: Antiviral activity against 10^2 CCID50 Yellow fever virus Jimenez infected in syrian golden hamster assessed as serum ALT level in surviving animals at 400 mg/kg/day, po administered 4 days post viral infection; format: functional
[31] = tested on: Yellow fever virus; experiment: Antiviral activity against 10^2 CCID50 Yellow fever virus Jimenez infected in syrian golden hamster assessed as serum ALT level in non surviving animals at 400 mg/kg/day, po administered 4 days post viral infection; format: functional

NC(=O)c1nc(F)cnc1O [FAVIPIRAVIR]
Activity [1]: 285 IU/L | Time [2]: >21 days | Time [3]: >21 days | Time [4]: 6.8 days | Activity [5]: Active | Activity [6]: Active | EC50 [7]: 180 µM | Activity [8]: 63 IU/L | Activity [9]: 157 IU/L | Activity [10]: Active | Activity [11]: 128 IU/L | Activity [12]: inactive | Activity [13]: inactive | Activity [14]: inactive | Activity [15]: inactive | Activity [16]: inactive | Time [17]: 6 days | Time [18]: >21 days | Time [19]: 7.1 days | Activity [20]: Active | Activity [21]: 80 IU/L | Activity [22]: 52 IU/L | Activity [23]: 84 IU/L | Activity [24]: 75 IU/L | Activity [25]: 139 IU/L | Activity [26]: 137 IU/L | Activity [27]: 115 IU/L | Activity [28]: 131 IU/L | Activity [29]: 212 IU/L | Activity [30]: 77 IU/L | Activity [31]: 231 IU/L
